The record followed here is patent US8071586B2, “Heterocyclyl compounds” (Hoffmann-La Roche Inc., priority 2008, dated 2011).

This assay addresses T1, human chemokine receptor 2 isoform B (CCR2) (Homo sapiens, UniProt P41597).
T1 sequence (P41597 1-360 isoform P41597-2): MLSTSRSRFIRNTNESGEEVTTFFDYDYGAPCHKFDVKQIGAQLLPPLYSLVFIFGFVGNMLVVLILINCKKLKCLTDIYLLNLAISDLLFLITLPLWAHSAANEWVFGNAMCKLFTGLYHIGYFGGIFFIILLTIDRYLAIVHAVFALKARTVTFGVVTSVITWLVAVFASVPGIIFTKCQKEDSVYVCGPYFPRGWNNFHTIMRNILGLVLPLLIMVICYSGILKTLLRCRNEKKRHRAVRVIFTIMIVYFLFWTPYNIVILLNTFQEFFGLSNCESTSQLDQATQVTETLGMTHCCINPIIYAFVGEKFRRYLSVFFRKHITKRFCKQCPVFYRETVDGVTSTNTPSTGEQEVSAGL
Kind of assay: Calcium mobilization assay (FLIPR, MCP-1 stimulated CHOK1-CCR2B-A5 cells). The following applies: Ca mobilisation assay, CCR2 antagonist activity, inhibition of MCP-1 induced calcium increase. Format: cell-based. Here is the method:
Calcium Mobilization Assay
CHOK1-CCR2B-A5 cells (from Euroscreen) stably overexpressing the human chemokine receptor 2 isoform B were cultured in Nutrient Hams F12 medium supplemented with 5% FBS, 100 U/ml penicillin, 100 μg/ml streptomycin, 400 μg/ml G418 and 5 μg/ml puromycin.
For the assay cells were grown overnight in 384-well black clear flat bottom polystyrene plates (Costar) at 37° C. at 5% CO2. After washing with DMEM, 20 mM Hepes, 2.5 mM probenecid, 0.1% BSA (DMEM assay buffer) cells were loaded with 4 μM Fluo-4 in the same DMEM assay buffer for 2 hours at 30° C. Excess dye was removed and cells were washed with DMEM assay buffer. 384-well compound plates were prepared with DMEM assay buffer/0.5% DMSO with or without various concentrations of test compounds. Usually compounds were tested for agonist and antagonist activity.
Test compounds were added to the assay plate and agonist activity was monitored as fluorescence for 80 seconds with a FLIPR (488 nm excitation; 510-570 nm emission; Molecular Devices). After 20-30 min. of incubation at 30° C., […] MCP-1 (R&D; Roche) was added and fluorescence was monitored again for 80 seconds. Increases in intracellular calcium are reported as maximum fluorescence after agonist exposure minus basal fluorescence before exposure. Antagonist activity is indicated as inhibitor concentration required for 50% inhibition of specific calcium increases.

The structures appear in SMILES notation. pIC50: −log10 of the molar value.

With `C[C@H]1C(=O)N(CCCN2CCC3(CC3)[C@H](O)C2)CCN1C(=O)Nc1ccc2ccccc2c1` [Example 75, (S)-4-[3-((S)-4-Hydroxy-6-aza-spiro[2.5]oct-6-yl)-propyl]-2-methyl-3-oxo-piperazine-1-carboxylic acid naphthalen-2-ylamide], the pIC50 (usually the negative decadic logarithm of the IC50, by convention in mol/L) is 8.52. As for `C[C@H]1C(=O)N(CCCN2CCC3(CC3)[C@H](O)C2)CCN1C(=O)Nc1ccc(-c2ccccc2)cc1` [Example 76, (S)-4-[3-((S)-4-Hydroxy-6-aza-spiro[2.5]oct-6-yl)-propyl]-2-methyl-3-oxo-piperazine-1-carboxylic acid biphenyl-4-ylamide], the pIC50 is 8.52.

On to `C[C@H]1C(=O)N(CCCN2CCC3(CC3)[C@H](O)C2)CCN1C(=O)NCc1ccc(Cl)cc1` [Example 77, (S)-4-[3-((S)-4-Hydroxy-6-aza-spiro[2.5]oct-6-yl)-propyl]-2-methyl-3-oxo-piperazine-1-carboxylic acid 4-chloro-benzylamide], for which the pIC50 is 6.96.

Take `C[C@H]1C(=O)N(CCCN2CCC3(CC3)[C@H](O)C2)CCN1C(=O)Nc1cccc(-c2ccccc2)c1` [Example 78, (S)-4-[3-((S)-4-Hydroxy-6-aza-spiro[2.5]oct-6-yl)-propyl]-2-methyl-3-oxo-piperazine-1-carboxylic acid biphenyl-3-ylamide]: the pIC50 is 8.70.

In the case of `COC[C@H](CCN1CCC2(CC2)[C@H](O)C1)N1CCN(C(=O)Nc2ccc(F)c(Cl)c2)[C@@H](C)C1=O` [Example 79, (S)-4-[(S)-3-((S)-4-Hydroxy-6-aza-spiro[2.5]oct-6-yl)-1-methoxymethyl-propyl]-2-methyl-3-oxo-piperazine-1-carboxylic acid (3-chloro-4-fluoro-phenyl)-amide], the pIC50 was 8.52. In the case of `COC[C@H](CCN1CCC2(CC2)[C@H](O)C1)N1CCN(C(=O)Nc2ccc(Cl)c(Cl)c2)[C@@H](C)C1=O` [Example 80, (S)-4-[(S)-3-((S)-4-Hydroxy-6-aza-spiro[2.5]oct-6-yl)-1-methoxymethyl-propyl]-2-methyl-3-oxo-piperazine-1-carboxylic acid (3,4-dichloro-phenyl)-amide], the pIC50 was 9.00. The value for `COC[C@H](CCN1CCCCC1)N1CCN(C(=O)Nc2ccc(Cl)c(Cl)c2)[C@@H](C)C1=O` [Example 81, (S)-4-((S)-1-Methoxymethyl-3-piperidin-1-yl-propyl)-2-methyl-3-oxo-piperazine-1-carboxylic acid (3,4-dichloro-phenyl)-amide] was 8.05; that for `COC[C@H](CCN1CCC2(CC2)[C@H](O)C1)N1CCN(C(=O)Nc2cccc(Cl)c2)[C@@H](C)C1=O` [Example 82, (S)-4-[(S)-3-((S)-4-Hydroxy-6-aza-spiro[2.5]oct-6-yl)-1-methoxymethyl-propyl]-2-methyl-3-oxo-piperazine-1-carboxylic acid (3-chloro-phenyl)-amide] was 8.40.

Consider `COC[C@H](CCN1CCC2(CC2)[C@H](O)C1)N1CCN(C(=O)Nc2cccc(F)c2)[C@@H](C)C1=O` [Example 83, (S)-4-[(S)-3-((S)-4-Hydroxy-6-aza-spiro[2.5]oct-6-yl)-1-methoxymethyl-propyl]-2-methyl-3-oxo-piperazine-1-carboxylic acid (3-fluoro-phenyl)-amide], for which the pIC50 was 8.05. Take `COC[C@H](CCN1CCC2(CC2)[C@H](O)C1)N1CCN(C(=O)Nc2ccccc2)[C@@H](C)C1=O` [Example 84, (S)-4-[(S)-3-((S)-4-Hydroxy-6-aza-spiro[2.5]oct-6-yl)-1-methoxymethyl-propyl]-2-methyl-3-oxo-piperazine-1-carboxylic acid phenylamide]: the pIC50 is 7.38.

`COC[C@H](CCN1CCC2(CC2)[C@H](O)C1)N1CCN(C(=O)Nc2cccc(Cl)c2)[C@H](C)C1=O` [Example 85, (R)-4-[(S)-3-((S)-4-Hydroxy-6-aza-spiro[2.5]oct-6-yl)-1-methoxymethyl-propyl]-2-methyl-3-oxo-piperazine-1-carboxylic acid (3-chloro-phenyl)-amide]: the pIC50 is 6.74. Turning to `C[C@H]1C(=O)N([C@@H](CCN2CCCCC2)COC(=O)Nc2ccc(Cl)c(Cl)c2)CCN1C(=O)Nc1ccc(Cl)c(Cl)c1` [Example 86, (3,4-Dichloro-phenyl)-carbamic acid (S)-2-[(S)-4-(3,4-dichloro-phenylcarbamoyl)-3-methyl-2-oxo-piperazin-1-yl]-4-piperidin-1-yl-butyl ester], the pIC50 is 6.72. Regarding `C[C@H]1C(=O)N(CCCCN2CCC3(CC3)[C@H](O)C2)CCN1C(=O)Nc1cccc(Cl)c1` [Example 87, (S)-4-[4-((S)-4-Hydroxy-6-aza-spiro[2.5]oct-6-yl)-butyl]-2-methyl-3-oxo-piperazine-1-carboxylic acid (3-chloro-phenyl)-amide], the pIC50 was 8.30. `C[C@H]1C(=O)N(CCCCN2CCC3(CC3)[C@H](O)C2)CCN1C(=O)Nc1ccc(C(F)(F)F)cc1` [Example 88, (S)-4-[4-((S)-4-Hydroxy-6-aza-spiro[2.5]oct-6-yl)-butyl]-2-methyl-3-oxo-piperazine-1-carboxylic acid (4-trifluoromethyl-phenyl)-amide]: the pIC50 was 7.01. As to `C[C@H]1C(=O)N(CCCCN2CCC3(CC3)[C@H](O)C2)CCN1C(=O)Nc1cccc(C(F)(F)F)c1` [Example 89, (S)-4-[4-((S)-4-Hydroxy-6-aza-spiro[2.5]oct-6-yl)-butyl]-2-methyl-3-oxo-piperazine-1-carboxylic acid (3-trifluoromethyl-phenyl)-amide], the pIC50 is 7.60. The value for `C[C@H]1C(=O)N(CCCCN2CCC3(CC3)[C@H](O)C2)CCN1C(=O)Nc1ccc(Cl)c(Cl)c1` [Example 90, (S)-4-[4-((S)-4-Hydroxy-6-aza-spiro[2.5]oct-6-yl)-butyl]-2-methyl-3-oxo-piperazine-1-carboxylic acid (3,4-dichloro-phenyl)-amide] was 9.00. As for `C[C@H]1C(=O)N(CCCCN2CCC3(CC3)[C@H](O)C2)CCN1C(=O)Nc1ccc2ccccc2c1` [Example 91, (S)-4-[4-((S)-4-Hydroxy-6-aza-spiro[2.5]oct-6-yl)-butyl]-2-methyl-3-oxo-piperazine-1-carboxylic acid naphthalen-2-ylamide], the pIC50 is 8.22.

With `C[C@H]1C(=O)N(CCCCN2CCC3(CC3)[C@H](O)C2)CCN1C(=S)Oc1ccc2ccccc2c1` [Example 92, (S)-4-[4-((S)-4-Hydroxy-6-aza-spiro[2.5]oct-6-yl)-butyl]-2-methyl-3-oxo-piperazine-1-carbothioic acid O-naphthalen-2-yl ester], the pIC50 was 6.20. The value for `C[C@H]1C(=O)N(CCCCN2CCC3(CC3)[C@H](O)C2)CCN1C(=O)Nc1cccc(-c2ccccc2)c1` [Example 93, (S)-4-[4-((S)-4-Hydroxy-6-aza-spiro[2.5]oct-6-yl)-butyl]-2-methyl-3-oxo-piperazine-1-carboxylic acid biphenyl-3-ylamide] was 8.70; that for `C[C@H]1C(=O)N(CCCCN2CCC3(CC3)[C@H](O)C2)CCN1C(=O)Nc1cccc(-c2cccnc2)c1` [Example 94, (S)-4-[4-((S)-4-Hydroxy-6-aza-spiro[2.5]oct-6-yl)-butyl]-2-methyl-3-oxo-piperazine-1-carboxylic acid (3-pyridin-3-yl-phenyl)-amide] was 6.53. `C[C@H]1C(=O)N(CCCCN2CCC3(CC3)[C@H](O)C2)CCN1C(=O)Nc1cccc(-c2ccncc2)c1` [Example 95, (S)-4-[4-((S)-4-Hydroxy-6-aza-spiro[2.5]oct-6-yl)-butyl]-2-methyl-3-oxo-piperazine-1-carboxylic acid (3-pyridin-4-yl-phenyl)-amide]: the pIC50 was 6.25. As for `C[C@H]1C(=O)N(CCCCN2CCC3(CC3)[C@H](O)C2)CCN1C(=O)Nc1ccc(C(F)(F)F)cn1` [Example 99, (S)-4-[4-((S)-4-Hydroxy-6-aza-spiro[2.5]oct-6-yl)-butyl]-2-methyl-3-oxo-piperazine-1-carboxylic acid (5-trifluoromethyl-pyridin-2-yl)-amide], the pIC50 is 7.62. Consider `C[C@H]1C(=O)N(CCCCN2CCC3(CC3)[C@H](O)C2)CCN1C(=O)Nc1cccc(C(F)(F)F)n1` [Example 101, (S)-4-[4-((S)-4-Hydroxy-6-aza-spiro[2.5]oct-6-yl)-butyl]-2-methyl-3-oxo-piperazine-1-carboxylic acid (6-trifluoromethyl-pyridin-2-yl)-amide], for which the pIC50 was 6.50. On to `C[C@H]1C(=O)N(CCN2CCC3(CC3)[C@H](O)C2)CCN1C(=O)Nc1ccc(Cl)c(Cl)c1` [Example 104, (S)-4-[2-((S)-4-Hydroxy-6-aza-spiro[2.5]oct-6-yl)-ethyl]-2-methyl-3-oxo-piperazine-1-carboxylic acid (3,4-dichloro-phenyl)-amide], for which the pIC50 was 6.42.
